According to patent US20220117845A1, “COMPOSITION AND CONTAINER, KIT, METHOD OF USE” (NTC S.R.L., priority 2019, published 2022):

Tests used:
[1] = Bulk density of the powder; format: physicochemical; conditions: after passing through drum centrifugal sieve shaker, mesh 3 mm clear span; measured in the laboratory
Experimental: As regards the bulk density outlined above, in particular the poured bulk density, such parameter is measured according to the European Pharmacopoeia reference standard (Ph. Eur.), current edition 2.2.42, in force at the priority date of this patent application. In the context of the present invention, the expression ‘bulk’ implies that the powder density value is calculated in a manner formally analogous to an absolute density (such as for a solid body or for a liquid). However, since a powder has empty inter-particle spaces, the total volume occupied by the powder (i.e. its outer bulk), thus including the inter-particle spaces between the various particles, should be taken into account when evaluating bulk density. More precisely, according to the aforementioned regulation, a 100 ml class A graduated flask is filled and brought to volume with the powder particles, after which the bulk density is calculated as the ratio between the weight of the powder contained in the flask and the volume (100 ml) occupied by that weight of the powder particles.

[2] = Dissolution study as a function of the pH value of water; format: physicochemical; conditions: 150 g in 900 ml of water
Excerpt: The solubility of the mannitol powder was then studied in the following three types of non-carbonated commercial waters: • Sangemini: pH at source 6.2; • Antica Fonte Boario: pH at source 7.0; • Panna Toscana: pH at source 8.0.

OC[C@@H](O)[C@@H](O)[C@H](O)[C@H](O)CO [mannitol]
transient density [1]: about 0.73 g/ml | time for complete dissolution ([2]; weakly acidic or neutral pH): more than 6 minutes | time for complete dissolution relative to weakly acidic or neutral pH ([2]; weakly basic pH): substantially half as much
